This is an account of results in ChEMBL document CHEMBL3352114, “Synthesis and biological evaluation of unnatural derivatives of narciclasine: 7-aza-nornarciclasine and its N-oxide” (Bioorg Med Chem Lett, 2014).

Holding throughout (assay type): functional, cell-based
One experiment concerns HeLa. Briefly: Cytotoxicity against human HeLa cells after 48 hrs by MTT assay. A general note: Tetrazolium dyes change colour on reduction, which living cells bring about.
In another experiment the test system is MCF7. Description: Cytotoxicity against human MCF7 cells after 48 hrs by MTT assay.
Experiment [1] in a line: Cytotoxicity against human BxPC3 cells. The following applies: BXPC-3.
The next experiment deals with NCI-H460. Description: Cytotoxicity against human NCI-H460 cells.
Another experiment has as its system DU-145. Description: Cytotoxicity against human DU145 cells.
Where [2] appears, read: Homo sapiens, HeLa, 48 h, read-out: IC50.
[3] abbreviates: Homo sapiens, MCF7, 48 h, read-out: IC50.

A word on the IC50: it is the concentration that gives 50% inhibition. For the compound `O=C1N[C@@H]2C(=C[C@H](O)[C@@H](O)[C@H]2O)c2cccnc21` [listing 1 of 2 here], the IC50 in the experiment with HeLa (setting [2]) and with MCF7 (setting [3]) was greater than 100 µM throughout.
Turning to `O=C(OC[C@H]1[C@H](O)[C@@H](O)[C@@H](O)[C@@H]2NC(=O)c3c(cc4c(c3O)OCO4)[C@@H]12)c1ccccc1`, the IC50 in the experiment with HeLa (setting [2]) is less than 0.4 µM; in experiment [1], 0.01 µM; with NCI-H460 it was 0.03 µM; in the experiment on DU-145, 0.01 µM; with MCF7 (setting [3]), less than 0.4 µM.
`O=C1N[C@@H]2C(=C[C@H](O)[C@@H](O)[C@H]2O)c2cccnc21` [listing 2 of 2 here]: the IC50 result in the experiment on HeLa (hela) and with MCF7 (mcf7) was “Not Active” in each case.
For `O=C1N[C@@H]2C(=C[C@H](O)[C@@H](O)[C@H]2O)c2cc3c(c(O)c21)OCO3` [NARCICLASINE], the results for the IC50 (in experiment [1]; with NCI-H460; with DU-145) were 0.05 µM, 0.05 µM and 0.03 µM, respectively.
Regarding `CC(=O)OC[C@H]1[C@H](O)[C@@H](O)[C@@H](O)[C@@H]2NC(=O)c3c(cc4c(c3O)OCO4)[C@@H]12`, the figures for the IC50 (in the experiment on HeLa (setting [2]); in experiment [1]; with MCF7 (setting [3])) were less than 0.4 µM, 0.07 µM and less than 0.4 µM, respectively.
As to `O=C1N[C@@H]2C(=C[C@H](O)[C@@H](O)[C@H]2O)c2ccc[n+]([O-])c21`, the IC50 with HeLa (setting [2]) and with MCF7 (setting [3]) was greater than 100 µM each time.
